Results reported in ChEMBL document CHEMBL1137310, “Stereoselective chemoenzymatic synthesis of the four stereoisomers of l-2-(2-carboxycyclobutyl)glycine and pharmacological characterization at human excitatory amino acid transporter subtypes 1, 2, and 3” (J Med Chem, 2006).

Columns and labels:
[1] = molecular target: Excitatory amino acid transporter 1 (Homo sapiens) (UniProt P43003); assay: Substrate activity at human EAAT1 expressed in HEK293 cells by FLIPR membrane potential assay; type: functional, cell-based
Sequence of Excitatory amino acid transporter 1 (Homo sapiens) (P43003 whole entry): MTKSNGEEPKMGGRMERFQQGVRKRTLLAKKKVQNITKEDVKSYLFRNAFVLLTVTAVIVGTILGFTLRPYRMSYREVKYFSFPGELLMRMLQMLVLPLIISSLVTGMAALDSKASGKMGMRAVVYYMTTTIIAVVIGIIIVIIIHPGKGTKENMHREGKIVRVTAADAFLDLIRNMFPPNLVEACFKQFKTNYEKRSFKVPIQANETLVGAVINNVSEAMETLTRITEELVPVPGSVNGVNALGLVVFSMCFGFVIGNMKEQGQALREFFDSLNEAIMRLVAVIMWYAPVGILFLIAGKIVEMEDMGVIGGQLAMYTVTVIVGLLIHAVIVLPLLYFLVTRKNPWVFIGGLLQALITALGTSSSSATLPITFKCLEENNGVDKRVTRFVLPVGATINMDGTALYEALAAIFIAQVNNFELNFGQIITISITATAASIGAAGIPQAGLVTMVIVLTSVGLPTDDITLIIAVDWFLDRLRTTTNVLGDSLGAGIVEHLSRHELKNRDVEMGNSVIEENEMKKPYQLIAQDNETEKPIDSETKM

[2] = molecular target: T1, Excitatory amino acid transporter 3 (Homo sapiens) (UniProt P43005); assay: Substrate activity at human EAAT3 expressed in HEK293 cells by FLIPR membrane potential assay; type: functional, cell-based
T1 sequence (whole entry): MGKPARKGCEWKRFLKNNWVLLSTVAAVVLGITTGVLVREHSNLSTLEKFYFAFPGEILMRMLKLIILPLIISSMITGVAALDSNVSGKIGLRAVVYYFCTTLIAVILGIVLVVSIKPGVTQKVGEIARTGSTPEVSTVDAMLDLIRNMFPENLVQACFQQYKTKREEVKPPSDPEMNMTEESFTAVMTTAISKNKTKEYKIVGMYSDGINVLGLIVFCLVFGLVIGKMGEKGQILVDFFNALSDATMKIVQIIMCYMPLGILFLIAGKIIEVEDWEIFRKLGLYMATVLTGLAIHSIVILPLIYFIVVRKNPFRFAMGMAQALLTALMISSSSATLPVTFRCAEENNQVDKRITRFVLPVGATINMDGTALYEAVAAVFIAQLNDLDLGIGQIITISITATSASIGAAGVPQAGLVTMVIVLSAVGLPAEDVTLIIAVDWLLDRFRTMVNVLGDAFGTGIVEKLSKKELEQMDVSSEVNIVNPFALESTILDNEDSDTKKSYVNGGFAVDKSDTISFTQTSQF

[3] = molecular target: Excitatory amino acid transporter 2 (Homo sapiens) (UniProt P43004); conditions: HEK293
Sequence of Excitatory amino acid transporter 2 (Homo sapiens) (P43004 whole entry): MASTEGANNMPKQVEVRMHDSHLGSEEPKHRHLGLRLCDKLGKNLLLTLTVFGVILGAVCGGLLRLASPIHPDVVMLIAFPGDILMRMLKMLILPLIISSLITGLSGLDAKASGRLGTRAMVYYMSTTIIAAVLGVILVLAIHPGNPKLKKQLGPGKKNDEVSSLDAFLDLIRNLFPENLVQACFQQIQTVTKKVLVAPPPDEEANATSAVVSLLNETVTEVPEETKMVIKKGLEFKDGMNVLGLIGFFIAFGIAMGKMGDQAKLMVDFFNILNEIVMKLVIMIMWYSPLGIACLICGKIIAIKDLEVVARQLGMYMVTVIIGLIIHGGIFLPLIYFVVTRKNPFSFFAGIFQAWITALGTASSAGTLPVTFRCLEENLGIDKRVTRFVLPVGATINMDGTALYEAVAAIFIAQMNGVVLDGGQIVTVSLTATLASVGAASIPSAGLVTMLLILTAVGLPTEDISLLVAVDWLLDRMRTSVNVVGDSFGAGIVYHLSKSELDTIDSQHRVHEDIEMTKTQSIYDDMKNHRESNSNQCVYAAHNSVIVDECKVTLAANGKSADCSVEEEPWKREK
Description: Substrate activity at human EAAT2 expressed in HEK293 cells by FLIPR membrane potential assay

[4] = molecular target: Excitatory amino acid transporter 1 (Homo sapiens) (UniProt P43003); assay: Substrate activity at human EAAT1 expressed in HEK293 cells at 1000 uM relative to glutamate by FLIPR membrane potential assay; type: functional, cell-based
[5] = molecular target: T1, Excitatory amino acid transporter 3 (Homo sapiens); assay: Substrate activity at human EAAT3 expressed in HEK293 cells at 1000 uM relative to glutamate by FLIPR membrane potential assay; type: functional, cell-based
[6] = molecular target: Excitatory amino acid transporter 1 (Homo sapiens) (UniProt P43003); assay: Substrate activity at human EAAT1 expressed in HEK293 cells relative to glutamate by FLIPR membrane potential assay; type: functional, cell-based

pKm [1]	pKm [2]	pKm [3]	Activity [4]	Activity [5]	Activity [6]	Compound
5.1	5	4.7				N[C@@H](CCC(=O)O)C(=O)O
			72%	48%		N[C@H](C(=O)O)[C@H]1CC[C@@H]1C(=O)O
4					94%	N[C@H](C(=O)O)[C@@H]1CC[C@H]1C(=O)O
